Data reported in patent publication US6569229B1, “Low-freezing point formulation containing phenol derivatives” (Omya AG, priority 1998, dated 2003).

Assays:
[1] = pH of the preserved slurry or coolant; format: physicochemical
aerobic mesophilic germs = assay: Germ count (determination of aerobic mesophilic germs) in preserved slurry or coolant; format: cell-based, pseudomonads (predominantly Pesudomonas aeruginosa)
Description: The germ count was determined according to the method “Determination of aerobic mesophilic germs”, Schweizerisches Lebensmittelbuch, chapter 56, paragraph 7.01, 1985 edition, revised version 1988. Mostly, the bacterial strains detected were from the family of pseudomonads (predominantly Pesudomonas aeruginosa).

[2] = Brookfield viscosity of the preserved pigment slurry; format: physicochemical
Description: Measurement of the viscosity was performed on a Brookfield viscosimeter type PVF-100 at 100 rpm. The following spindles were used for the individual measurements:
The measurement was carried out in a low 400 ml beaker.
The temperature during the measurement was 20° C. The measurement was performed after 1 min of stirring.
Prior to the actual measurements, all samples were stirred intensively for 2 min (5000 rpm, stirring disc diameter 50 mm).
This type of viscosity measurement was used in all of the following examples.

[3] = Solubility / miscibility in water and attainable concentration; format: physicochemical; details: NaOH as neutralizing agent, room temperature; higher concentrations impossible or recrystallized during storage
[4] = cited from earlier work

Oc1ccccc1-c1ccccc1 [o-phenylphenol]
pH of coolant ([1]; 5% oil in water coolant emulsion, 2 kg actives/t, added as 50% solution (Example 13), blank 6.9): 7.0
pH of slurry ([1]; calcium carbonate slurry 77.8% solids, 250 g actives/t, added according to example 8, 47.5% solution (Example 11), blank 9.6): 9.5
pH of slurry ([1]; calcium carbonate slurry 77.8% solids, 250 g actives/t, added as solution of example 2 (Example 4, prior art), blank 9.6): 10.2
pH of slurry ([1]; kaolin slurry 72.8% solids, 300 g actives/t, added as solution of example 1 (Example 3, prior art), blank 7.4): 8.1
pH of slurry ([1]; kaolin slurry 72.8% solids, 300 g actives/t, added as solution of example 7 (Example 10), blank 7.4): 7.4
pH of slurry ([1]; talc slurry 64.2% solids, 350 g actives/t, added as 30% solution of example 9 (Example 12), blank 10.1): 10.2
germ count after 24 hrs (aerobic mesophilic germs; 5% oil in water coolant emulsion, 2 kg actives/t, added as 50% solution (Example 13), blank 10^7/g): < 100 g⁻¹
germ count after 24 hrs (aerobic mesophilic germs; calcium carbonate slurry, 250 g actives/t, added according to example 8, 47.5% solution (Example 11), blank 10^6/g): < 100 g⁻¹
germ count after 24 hrs (aerobic mesophilic germs; calcium carbonate slurry, 250 g actives/t, added as solution of example 2 (Example 4), blank 10^5/g): < 100 g⁻¹
germ count after 24 hrs (aerobic mesophilic germs; kaolin slurry, 300 g actives/t, added as solution of example 1 (Example 3), blank 10^5/g): < 100 g⁻¹
germ count after 24 hrs (aerobic mesophilic germs; kaolin slurry, 300 g actives/t, added as solution of example 7 (Example 10), blank 10^5/g): < 100 g⁻¹
germ count after 24 hrs (aerobic mesophilic germs; talc slurry, 350 g actives/t, added as 30% solution of example 9 (Example 12), blank 10^5/g): < 100 g⁻¹
Brookfield viscosity spindle 3, 100 rpm after preparation ([2]; calcium carbonate slurry 77.8% solids, 250 g actives/t, added according to example 8, 47.5% solution (Example 11), blank 340): 350 mPas
Brookfield viscosity spindle 3, 100 rpm after 1 week ([2]; calcium carbonate slurry 77.8% solids, 250 g actives/t, added according to example 8, 47.5% solution (Example 11), blank 350): 380 mPas
Brookfield viscosity spindle 3, 100 rpm after preparation ([2]; calcium carbonate slurry 77.8% solids, 250 g actives/t, added as solution of example 2 (Example 4), blank 340): 320 mPas
Brookfield viscosity spindle 3, 100 rpm after 1 week ([2]; calcium carbonate slurry 77.8% solids, 250 g actives/t, added as solution of example 2 (Example 4), blank 350): 460 mPas
Brookfield viscosity spindle 3, 100 rpm after preparation ([2]; kaolin slurry 72.8% solids, 300 g actives/t, added as solution of example 1 (Example 3), blank 240): 310 mPas
Brookfield viscosity spindle 3, 100 rpm after 1 week ([2]; kaolin slurry 72.8% solids, 300 g actives/t, added as solution of example 1 (Example 3), blank 330): 760 mPas
Brookfield viscosity spindle 3, 100 rpm after preparation ([2]; kaolin slurry 72.8% solids, 300 g actives/t, added as solution of example 7 (Example 10), blank 240): 250 mPas
Brookfield viscosity spindle 3, 100 rpm after 1 week ([2]; kaolin slurry 72.8% solids, 300 g actives/t, added as solution of example 7 (Example 10), blank 330): 350 mPas
Brookfield viscosity spindle 3, 100 rpm after preparation ([2]; talc slurry 64.2% solids, 350 g actives/t, added as 30% solution of example 9 (Example 12), blank 320): 320 mPas
Brookfield viscosity spindle 3, 100 rpm after 1 week ([2]; talc slurry 64.2% solids, 350 g actives/t, added as 30% solution of example 9 (Example 12), blank 480): 540 mPas
attainable concentration of o-phenylphenol solution [3]: ≤ 20 % by wt.
solubility in water [4]: almost insoluble in water
water miscibility ([4]; o-phenylphenol in monopropylene glycol): not water miscible
